Data from PubChem BioAssay (NCI).
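All cell lines were grown in 96-well plates and treated with compound for 48 hours. TGI is the concentration that stops growth completely.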

Columns and labels:
Test in all cases: growth of human tumour cells (NCI), 48 h
[1] = test system: RPMI-8226 leukemia
[2] = test system: COLO 205 colon
[3] = test system: BT-549 breast
[4] = test system: UACC-62 melanoma
[5] = test system: DU-145 prostate
[6] = test system: KM12 colon
[7] = test system: OVCAR-3 ovarian
[8] = test system: SNB-75 CNS
[9] = test system: MOLT-4 leukemia
[10] = test system: K-562 leukemia
[11] = test system: HCT-15 colon
[12] = test system: SK-OV-3 ovarian
[13] = test system: OVCAR-8 ovarian
[14] = test system: OVCAR-4 ovarian
[15] = test system: SK-MEL-5 melanoma
[16] = test system: SF-295 CNS
[17] = test system: M14 melanoma
[18] = test system: SK-MEL-2 melanoma

For `CCOC(=O)c1nc2ccccc2nc1NCc1cc(OC)c(OC)c(OC)c1`, the TGI [1] was > 100 µM, the TGI [2] was > 100 µM and the TGI [3] was > 100 µM. For the same compound, the TGI [4] was > 100 µM, the TGI [5] was > 100 µM and the TGI [6] was > 100 µM. The TGI [7] was > 100 µM, the TGI [8] was > 100 µM and the TGI [9] was > 100 µM. The TGI [10] was > 100 µM, the TGI [11] was > 100 µM and the TGI [12] was > 100 µM. The TGI [13] was > 100 µM, the TGI [14] was > 100 µM and the TGI [15] was > 100 µM. For the same compound, the TGI [16] was > 100 µM.
With `CC(C)(C)c1cc(C2=NNC(c3ccccc3)C2)cc(C(C)(C)C)c1O` (configuration not stated) the TGI [1] was 43.8 µM, the TGI [2] was 31.7 µM and the TGI [3] was 32 µM. The TGI [4] was 28 µM, the TGI [5] was 30.3 µM and the TGI [6] was 31.7 µM. The TGI [7] was 14.6 µM, the TGI [8] was 25.3 µM and the TGI [9] was > 100 µM. It also gave a TGI [11] of 31.2 µM, a TGI [12] of 38.2 µM and a TGI [17] of 34.1 µM. The TGI [13] was 31.7 µM, the TGI [14] was 33.2 µM and the TGI [15] was 23 µM. The TGI [16] was 37.7 µM and the TGI [18] was 29.3 µM.
`Nc1cccc(/C=C/C(=O)N2CCN(CCOC(c3ccccc3)c3ccccc3)CC2)c1` was tested, and the TGI [1] was 26.7 µM, the TGI [2] was 33.1 µM and the TGI [3] was 29.2 µM. It also gave a TGI [4] of 29.6 µM, a TGI [5] of 28.5 µM and a TGI [6] of 30.7 µM. It also gave a TGI [7] of 32 µM, a TGI [8] of 26.2 µM and a TGI [9] of 21.2 µM. It also gave a TGI [10] of 26.7 µM, a TGI [11] of 31.5 µM and a TGI [12] of 32.7 µM. The TGI [17] was 26 µM, the TGI [13] was 35.6 µM and the TGI [14] was 26.1 µM. The TGI [15] was 29.4 µM, the TGI [16] was 32.1 µM and the TGI [18] was 29.7 µM.
For `COC(=O)C1CN=CN1CCc1ccccc1` (configuration not stated), the TGI [1] was > 100 µM, the TGI [2] was > 100 µM and the TGI [3] was > 100 µM. For the same compound, the TGI [4] was > 100 µM, the TGI [5] was > 100 µM and the TGI [6] was > 100 µM. For the same compound, the TGI [7] was > 100 µM, the TGI [8] was > 100 µM and the TGI [9] was > 100 µM. The TGI [10] was > 100 µM, the TGI [11] was > 100 µM and the TGI [12] was > 100 µM. The TGI [17] was > 100 µM, the TGI [13] was > 100 µM and the TGI [14] was > 100 µM. The TGI [15] was > 100 µM, the TGI [16] was > 100 µM and the TGI [18] was > 100 µM.
`CCOC(=O)c1cn2c(n1)sc1c(Cl)c(Cl)ccc12` was tested, and the TGI [1] was > 100 µM, the TGI [2] was 19.1 µM and the TGI [3] was > 100 µM. For the same compound, the TGI [4] was > 100 µM, the TGI [5] was > 100 µM and the TGI [6] was > 58.2 µM. For the same compound, the TGI [7] was > 58.1 µM, the TGI [8] was 73.1 µM and the TGI [9] was > 40 µM. For the same compound, the TGI [10] was > 46.9 µM, the TGI [11] was > 100 µM and the TGI [12] was > 100 µM. For the same compound, the TGI [17] was > 96.3 µM, the TGI [13] was > 66 µM and the TGI [14] was > 100 µM. For the same compound, the TGI [15] was 65.7 µM, the TGI [16] was > 100 µM and the TGI [18] was > 100 µM.
With `Cc1cccc(CP(Cc2cccc(C)c2)CC2(Cp3c4ccccc4c4ccccc43)COC2)c1` the TGI [1] was > 62.5 µM, the TGI [2] was 2.96 µM and the TGI [3] was > 100 µM. The TGI [4] was > 100 µM, the TGI [5] was > 100 µM and the TGI [6] was > 100 µM. For the same compound, the TGI [7] was > 100 µM, the TGI [8] was > 100 µM and the TGI [9] was 37.8 µM. For the same compound, the TGI [10] was > 100 µM, the TGI [11] was > 100 µM and the TGI [12] was > 100 µM. The TGI [17] was > 100 µM, the TGI [13] was > 100 µM and the TGI [14] was > 100 µM. The TGI [15] was 13.4 µM, the TGI [16] was > 100 µM and the TGI [18] was > 94.7 µM.
With `O=C(NCCNCCCNC(=O)c1cc(-c2ccccc2)nc2ccccc12)c1cccc(O)c1O` the TGI [1] was 15.3 µM, the TGI [2] was 22.4 µM and the TGI [3] was 11.9 µM. For the same compound, the TGI [4] was 12.1 µM, the TGI [5] was > 100 µM and the TGI [6] was 76.6 µM. The TGI [7] was 26.3 µM, the TGI [8] was 60.9 µM and the TGI [9] was > 100 µM. The TGI [10] was 11.1 µM, the TGI [11] was 26.8 µM and the TGI [12] was > 100 µM. It also gave a TGI [17] of 10.4 µM, a TGI [15] of 4.09 µM and a TGI [16] of 28.7 µM. For the same compound, the TGI [18] was 15.1 µM.
With `O=C1NCc2ccccc2S(=O)(=O)n2cccc21` the TGI [1] was > 100 µM, the TGI [2] was > 100 µM and the TGI [3] was > 100 µM. For the same compound, the TGI [4] was > 100 µM, the TGI [5] was > 100 µM and the TGI [6] was > 100 µM. The TGI [7] was > 100 µM, the TGI [8] was > 100 µM and the TGI [9] was > 100 µM. For the same compound, the TGI [11] was > 100 µM, the TGI [12] was > 100 µM and the TGI [17] was > 100 µM. The TGI [13] was > 100 µM, the TGI [14] was > 100 µM and the TGI [15] was > 100 µM. The TGI [16] was > 100 µM and the TGI [18] was > 100 µM.
`COc1ccc(C(=O)c2sc(Nc3ccc(Cl)cc3)nc2N)cc1` was tested, and the TGI [1] was > 43.5 µM, the TGI [2] was > 100 µM and the TGI [3] was > 100 µM. For the same compound, the TGI [4] was > 100 µM, the TGI [5] was > 100 µM and the TGI [6] was > 100 µM. The TGI [7] was 35 µM, the TGI [8] was 18.4 µM and the TGI [9] was > 71.4 µM. For the same compound, the TGI [10] was > 100 µM, the TGI [11] was > 100 µM and the TGI [12] was 27.2 µM. The TGI [17] was > 100 µM, the TGI [13] was > 100 µM and the TGI [14] was > 61.4 µM. For the same compound, the TGI [15] was > 100 µM, the TGI [16] was 46.7 µM and the TGI [18] was > 49.1 µM.
`CC(=O)OCC1OC(OC2CC3C(C)(C)C(OC(C)=O)CC[C@]3(C)C3CCC45CC4(CCC5[C@@H](C)C[C@H](O)C(O)C(C)(C)O)[C@]23C)C(O)C(O)C1O` (some centres not stated) was tested, and the TGI [1] was > 10 µM, the TGI [2] was > 10 µM and the TGI [3] was > 10 µM. The TGI [4] was > 10 µM, the TGI [5] was > 10 µM and the TGI [6] was > 10 µM. The TGI [7] was > 10 µM, the TGI [8] was > 10 µM and the TGI [9] was > 10 µM. For the same compound, the TGI [10] was > 10 µM, the TGI [11] was > 10 µM and the TGI [12] was > 10 µM. For the same compound, the TGI [17] was > 10 µM, the TGI [13] was > 10 µM and the TGI [14] was > 10 µM. For the same compound, the TGI [15] was > 10 µM, the TGI [16] was > 10 µM and the TGI [18] was > 10 µM.
With `CN1CCN(c2ncc3c(n2)sc2c(=O)n(-c4ccccc4)cnc23)CC1` the TGI [1] was > 100 µM, the TGI [2] was > 100 µM and the TGI [3] was > 100 µM. For the same compound, the TGI [4] was > 100 µM, the TGI [5] was > 100 µM and the TGI [6] was > 100 µM. The TGI [7] was > 100 µM, the TGI [8] was > 100 µM and the TGI [9] was > 100 µM. The TGI [10] was > 100 µM, the TGI [11] was > 100 µM and the TGI [12] was > 100 µM. For the same compound, the TGI [17] was > 100 µM, the TGI [13] was > 100 µM and the TGI [14] was > 100 µM. The TGI [15] was > 100 µM, the TGI [16] was > 100 µM and the TGI [18] was > 100 µM.
`C[C@@H](c1ccccc1)N1CN(C(=O)OCc2ccccc2)C(C)(C)CC1=O` was tested, and the TGI [1] was > 100 µM, the TGI [2] was > 100 µM and the TGI [3] was > 100 µM. The TGI [4] was > 100 µM, the TGI [5] was > 100 µM and the TGI [6] was > 100 µM. The TGI [7] was > 100 µM, the TGI [8] was > 100 µM and the TGI [9] was > 100 µM. The TGI [10] was > 100 µM, the TGI [11] was > 100 µM and the TGI [12] was > 100 µM. The TGI [17] was > 100 µM, the TGI [13] was > 100 µM and the TGI [14] was > 100 µM. For the same compound, the TGI [15] was > 100 µM, the TGI [16] was > 100 µM and the TGI [18] was > 100 µM.
Compound `O=S(=O)(O)C(=Nc1cccc(Cc2ccccc2)c1)Nc1cccc(Cc2ccccc2)c1` has a TGI [1] of 83.1 µM, a TGI [2] of 34.3 µM and a TGI [3] of 33.4 µM. For the same compound, the TGI [4] was 30.9 µM, the TGI [5] was 35.4 µM and the TGI [6] was 31.5 µM. The TGI [8] was 30.6 µM, the TGI [9] was 83.4 µM and the TGI [10] was > 100 µM. For the same compound, the TGI [11] was 35.2 µM, the TGI [12] was 36.9 µM and the TGI [17] was 31.8 µM. For the same compound, the TGI [13] was 36.2 µM, the TGI [14] was 41 µM and the TGI [15] was 32.4 µM. It also gave a TGI [16] of 34.3 µM and a TGI [18] of 44.6 µM.
